Structures can show the parent of a compound that is named as a salt.
molecular target: T1, Human AHR (Homo sapiens, UniProt P35869); test: hAHR Nuclear Translocation Assay; format: cell-based; conditions: Jump-In T-REx HEK293 cells expressing AhR-EGFP chimera; 45 minutes incubation; ratio of EGFP fluorescent intensity in nuclear over cytosol; 20-point curve
T1 construct: expressed in transfected cells
T1 sequence (P35869 11-848): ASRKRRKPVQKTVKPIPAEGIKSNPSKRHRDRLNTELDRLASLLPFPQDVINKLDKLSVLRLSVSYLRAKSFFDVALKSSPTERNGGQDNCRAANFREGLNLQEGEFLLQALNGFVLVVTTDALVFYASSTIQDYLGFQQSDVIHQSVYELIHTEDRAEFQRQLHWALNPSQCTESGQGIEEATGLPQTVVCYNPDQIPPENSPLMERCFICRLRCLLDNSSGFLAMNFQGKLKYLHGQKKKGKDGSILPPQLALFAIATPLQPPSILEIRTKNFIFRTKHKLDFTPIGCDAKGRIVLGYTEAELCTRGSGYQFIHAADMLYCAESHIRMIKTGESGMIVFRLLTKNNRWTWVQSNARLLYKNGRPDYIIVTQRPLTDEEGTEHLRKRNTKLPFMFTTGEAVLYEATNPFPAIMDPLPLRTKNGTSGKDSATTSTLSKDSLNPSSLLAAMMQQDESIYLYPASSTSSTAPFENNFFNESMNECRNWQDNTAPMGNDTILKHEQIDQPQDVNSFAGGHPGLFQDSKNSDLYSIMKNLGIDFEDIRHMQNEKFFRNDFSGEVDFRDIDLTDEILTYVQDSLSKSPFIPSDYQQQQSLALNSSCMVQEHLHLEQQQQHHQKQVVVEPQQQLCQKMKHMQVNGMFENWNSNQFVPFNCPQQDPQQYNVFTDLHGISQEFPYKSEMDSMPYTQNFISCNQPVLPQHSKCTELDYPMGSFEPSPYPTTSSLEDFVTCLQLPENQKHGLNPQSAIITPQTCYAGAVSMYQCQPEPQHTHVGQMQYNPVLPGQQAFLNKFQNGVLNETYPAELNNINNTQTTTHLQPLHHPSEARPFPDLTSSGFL
Experimental: Stable cell lines were established using Jump-In™ T-REx™ HEK293 Retargeting Kit (Life Technologies). Human AHR cDNA was cloned into the pJTI R4 CMV-TO EGFP vector. The EGFP was cloned to the C-terminal of AHR to form AhR-EGFP chimera. The pJTI R4 CMV-TO AhR-EGFP vector was transfected using FuGENE® HD into Jump-In™ T-REx™ HEK293 cells. Transfected cells were selected using 2.5 mg/ml G418 for 10 to 14 days, then expanded, harvested, and suspended in freeze media (FBS with 8% DMSO) at 2×10^7 cells/ml, and aliquots were stored in liquid nitrogen. […] On the assay date, compound was serially diluted (1:2) into 384-well nunc plates with DMSO using acoustic dispensing (ECHO). The dose response was a 20-point curve. Compound was resuspended in 40 μl of DMEM plus 0.1% BSA. The culture media was damped and 25 μl of DMEM plus 0.1% BSA was added, then 25 μl of compound in DMEM plus 0.1% BSA was added into cell plates. Cells were incubated with compounds at 37° C. and 5% CO2 for 45 minutes. The final DMSO concentration was 0.2%. The media was damped after 45 minutes of incubation. The cells were fixed with 40 μl of cold methanol (−20° C.) for 20 minutes. The methanol was damped and 50 μl of DPBS containing 1 μg/ml Hochst was added into the cell plates. The intensity of EGFP was quantitated by using OPERA PHENIX® or Operetta™ high content image system (Perkin Elmer) with 20× Water Objective and five field per well. The ratio of EGFP fluorescent intensity in nuclear over cytosol was analyzed using a 4-parameter nonlinear logistic equation to determine the potency of AHR agonists.

| EC50 | Compound |
| --- | --- |
| 10.8 nM | COc1cccc(NC(=O)c2cc3ccccc3n(C)c2=O)n1 [Example 21, N-(6-Methoxy-2-pyridyl)-1-methyl-2-oxo-quinoline-3-carboxamide] |
| 3.5 nM | Cc1ccccc1NC(=O)c1cc2ccccc2n(C)c1=O [Example 11, 1-Methyl-N-(o-tolyl)-2-oxo-quinoline-3-carboxamide] |
| 14.2 nM | COc1cnc(NC(=O)c2cc3ccccc3n(C)c2=O)nc1 [Example 15, N-(5-Methoxypyrimidin-2-yl)-1-methyl-2-oxo-quinoline-3-carboxamide] |
| 0.304 nM | COc1ccc(NC(=O)c2cc3ccccc3n(C)c2=O)cc1 [Example 1, N-(4-Methoxyphenyl)-1-methyl-2-oxo-quinoline-3-carboxamide] |
| 0.993 nM | Cn1c(=O)c(C(=O)Nc2ncc(F)cn2)cc2ccccc21 [Example 14, N-(5-Fluoropyrimidin-2-yl)-1-methyl-2-oxo-quinoline-3-carboxamide] |
| 16.1 nM | Cn1c(=O)c(C(=O)Nc2ccccc2)cc2ccc(OCCO)cc21 [Example 61, 7-(2-Hydroxyethoxy)-1-methyl-2-oxo-N-phenyl-quinoline-3-carboxamide] |
| 40.6 nM | CN(C)CCNc1ccc2c(c1)cc(C(=O)Nc1ccccn1)c(=O)n2C [Example 55, 6-[2-(Dimethylamino)ethylamino]-1-methyl-2-oxo-N-(2-pyridyl)quinoline-3-carboxamide] |
| 81.2 nM | Cn1c(=O)c(C(=O)Nc2ncc(F)cn2)cc2c(NCCO)cccc21 [Example 68, N-(5-Fluoropyrimidin-2-yl)-5-(2-hydroxyethylamino)-1-methyl-2-oxo-quinoline-3-carboxamide] |
| 6.24 nM | Cc1ccc(NC(=O)c2cc3cccc4c3n(c2=O)CC4)nc1 [Example 41, N-(5-Methyl-2-pyridyl)-11-oxo-1-azatricyclo[6.3.1.04, 12]dodeca-4(12),5,7,9-tetraene-10-carboxamide] |
| 0.468 nM | Cn1c(=O)c(C(=O)Nc2ccc(F)cc2)cc2cccnc21 [Example 18, N-(4-Fluorophenyl)-1-methyl-2-oxo-1,8-naphthyridine-3-carboxamide] |
| 7.45 nM | Cn1c(=O)c(C(=O)Nc2ccccc2)cc2cc(OCCO)ccc21 [Example 58, 6-(2-Hydroxyethoxy)-1-methyl-2-oxo-N-phenyl-quinoline-3-carboxamide] |
| 3.52 nM | Cn1c(=O)c(C(=O)Nc2ncccn2)cc2ccccc21 [Example 39, 1-Methyl-2-oxo-N-pyrimidin-2-yl-quinoline-3-carboxamide] |
| 0.613 nM | Cn1c(=O)c(C(=O)Nc2ccccn2)cc2ccccc21 [Example 9, 1-Methyl-2-oxo-N-(2-pyridyl)quinoline-3-carboxamide] |
| 0.214 nM | Cn1c(=O)c(C(=O)Nc2ccc(F)cc2)cc2ccccc21 [Example 4, N-(4-Fluorophenyl)-1-methyl-2-oxo-quinoline-3-carboxamide] |
| 53.2 nM | CO[C@H]1CC[C@@H](NC(=O)c2cc3cccc4c3n(c2=O)CC4)C1 (relative stereo) [Example 31, 11-Oxo-N-[rel-(1S,3R)-3-methoxycyclopentyl]-1-azatricyclo[6.3.1.04,12]dodeca-4(12),5,7,9-tetraene-10-carboxamide] |
| 0.57 nM | Cc1ccc(NC(=O)c2cc3cccc4c3n(c2=O)CC4)cc1 [Example 29, 11-Oxo-N-(p-tolyl)-1-azatricyclo[6.3.1.04,12]dodeca-4(12),5,7,9-tetraene-10-carboxamide] |
| 9.04 nM | O=C(Nc1ccccc1)c1cc2ccccc2[nH]c1=O [Example 34, 2-Oxo-N-phenyl-1H-quinoline-3-carboxamide] |

| EC50 | Compound |
| --- | --- |
| 0.595 nM | COc1ccc(NC(=O)c2cc3ccc(C)cc3n(C)c2=O)cc1 [Example 44, N-(4-Methoxyphenyl)-1,7-dimethyl-2-oxo-quinoline-3-carboxamide] |
| 0.807 nM | O=C(Nc1ccc(F)cn1)c1cc2cccc3c2n(c1=O)CC3 [Example 37, N-(5-Fluoro-2-pyridyl)-11-oxo-1-azatricyclo[6.3.1.04,12]dodeca-4(12),5,7,9-tetraene-10-carboxamide] |
| 18 nM | COc1ccc(NC(=O)c2cc3ccc(N(C)C)cc3n(C)c2=O)cc1 [Example 47, 7-(Dimethylamino)-N-(4-methoxyphenyl)-1-methyl-2-oxo-quinoline-3-carboxamide] |
| 20.3 nM | CN(C)CCNc1ccc2c(c1)cc(C(=O)Nc1ccc(F)cn1)c(=O)n2C [Example 52, 6-[2-(Dimethylamino)ethylamino]-N-(5-fluoro-2-pyridyl)-1-methyl-2-oxo-quinoline-3-carboxamide] |
| 10.6 nM | Cn1cc(NC(=O)c2cc3ccccc3n(C)c2=O)cn1 [Example 27, hydrochloride] |
| 0.675 nM | Cc1ccc(NC(=O)c2cc3ccccc3n(C)c2=O)nc1 [Example 20, 1-Methyl-N-(5-methyl-2-pyridyl)-2-oxo-quinoline-3-carboxamide] |
| 15.1 nM | Cn1c(=O)c(C(=O)Nc2ccccc2)cc2ccc(NCCO)cc21 [Example 70, 7-(2-Hydroxyethylamino)-1-methyl-2-oxo-N-phenyl-quinoline-3-carboxamide] |
| 2.21 nM | CNc1ccc2cc(C(=O)Nc3ccc(OC)cc3)c(=O)n(C)c2c1 [Example 46, N-(4-Methoxyphenyl)-1-methyl-7-(methylamino)-2-oxo-quinoline-3-carboxamide] |
| 1.91 nM | Cn1c(=O)c(C(=O)Nc2ncccc2F)cc2ccccc21 [Example 28, N-(3-Fluoro-2-pyridyl)-1-methyl-2-oxo-quinoline-3-carboxamide] |
| 0.832 nM | COc1ccc(NC(=O)c2cc3ccc(Br)cc3n(C)c2=O)cc1 [Example 36, 7-Bromo-N-(4-methoxyphenyl)-1-methyl-2-oxo-quinoline-3-carboxamide] |
| 2.57 nM | COc1ccc(NC(=O)c2cc3cccc4c3n(c2=O)CCC4)cc1 [Example 25, N-(4-Methoxyphenyl)-2-oxo-1-azatricyclo[7.3.1.05,13]trideca-3,5,7,9(13)-tetraene-3-carboxamide] |
| 6.66 nM | Cn1c(=O)c(C(=O)Nc2ncc(C(F)(F)F)cn2)cc2c(NCCO)cccc21 [Example 69, 5-(2-Hydroxyethylamino)-1-methyl-2-oxo-N-[5-(trifluoromethyl)pyrimidin-2-yl]quinoline-3-carboxamide] |
| 5.17 nM | COc1ccc(NC(=O)c2cc3ccccc3n(C)c2=O)c(C)c1 [Example 6, N-(4-Methoxy-2-methyl-phenyl)-1-methyl-2-oxo-quinoline-3-carboxamide] |
| 2.14 nM | COc1ccc(NC(=O)c2cc3ccc(C4CC4)cc3n(C)c2=O)cc1 [Example 45, 7-Cyclopropyl-N-(4-methoxyphenyl)-1-methyl-2-oxo-quinoline-3-carboxamide] |
| 16.4 nM | Cn1c(=O)c(C(=O)NC23CC(C2)C3)cc2ccccc21 [Example 32, N-(3-Bicyclo[1.1.1]pentanyl)-1-methyl-2-oxo-quinoline-3-carboxamide] |
| 0.837 nM | COc1ccc(NC(=O)c2cc3ccccc3n(C)c2=O)cc1OC [Example 3, N-(3,4-Dimethoxyphenyl)-1-methyl-2-oxo-quinoline-3-carboxamide] |
| 25.8 nM | Cc1cccc(NC(=O)c2cc3ccccc3n(C)c2=O)n1 [Example 19, 1-Methyl-N-(6-methyl-2-pyridyl)-2-oxo-quinoline-3-carboxamide] |

Source: US12479822B2, “AHR agonists” (Eli Lilly and Company, priority 2021, dated 2025)
